Target: P. falciparum apicoplast DNA polymerase (Pf-apPOL) (Plasmodium falciparum, UniProt Q8ILY1)
Experiment: Fluorescence-based high-throughput DNA polymerase assay (molecular beacon), primary screen and dose-response;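 on % inhibition ApPOL 90': test concentration in µM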;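 on % inhibition apPOL 180': test concentration in µM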
Type: biochemical
Summary of the method: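 Single-point screening used 10 µM compound with 20 nM polymerase, 20 nM hairpin substrate and 6 µM dNTPs for 90 min at 25 °C. Confirmatory titrations (2.5–80 µM) followed fluorescence at three times, and IC50 was derived from a fit including a cooperativity term n.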

[1] = primary screen value of the 186 hits; unit not given; 90 min, 10 µM

P. falciparum apicoplast DNA polymerase (Pf-apPOL), sequence (Q8ILY1 entry or part of it): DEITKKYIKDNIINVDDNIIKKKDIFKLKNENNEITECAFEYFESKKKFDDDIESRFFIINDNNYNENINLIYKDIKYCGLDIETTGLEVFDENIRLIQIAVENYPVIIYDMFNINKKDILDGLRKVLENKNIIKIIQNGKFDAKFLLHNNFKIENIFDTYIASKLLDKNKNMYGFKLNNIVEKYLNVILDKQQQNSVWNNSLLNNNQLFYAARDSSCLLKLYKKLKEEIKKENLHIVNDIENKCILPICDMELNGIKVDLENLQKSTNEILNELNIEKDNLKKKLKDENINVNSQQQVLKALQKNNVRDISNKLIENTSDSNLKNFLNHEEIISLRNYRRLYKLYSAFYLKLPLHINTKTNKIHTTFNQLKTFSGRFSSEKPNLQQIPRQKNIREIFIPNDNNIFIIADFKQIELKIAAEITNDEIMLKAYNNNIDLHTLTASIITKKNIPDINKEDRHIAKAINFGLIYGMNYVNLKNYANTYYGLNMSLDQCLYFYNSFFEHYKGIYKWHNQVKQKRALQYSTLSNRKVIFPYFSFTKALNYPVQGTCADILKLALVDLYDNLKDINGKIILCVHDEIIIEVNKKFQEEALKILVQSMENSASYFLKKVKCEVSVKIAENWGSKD

## COc1ccc(NC(=O)Cn2ccc3c(=O)[nH]ccc32)cc1 [Molecule 13, COc1ccc(cc1)NC(=O)Cn1ccc2c1cc[nH]c2=O]
DRC-1; 10'; concentration 2.5
  % inhibition Apo pol 10': 9.9864%
DRC-1; 10'; concentration 5
  % inhibition Apo pol 10': 32.1099%
DRC-1; 10'; concentration 10
  % inhibition Apo pol 10': 65.6259%
DRC-1; 10'; concentration 20
  % inhibition Apo pol 10': 81.849%
DRC-1; 10'; concentration 40
  % inhibition Apo pol 10': 89.1437%
DRC-1; 10'; concentration 80
  % inhibition Apo pol 10': 82.2361%
DRC-1; 90'; concentration 2.5
  % inhibition Apol 90': 1.393%
DRC-1; 90'; concentration 5
  % inhibition Apol 90': 18.8368%
DRC-1; 90'; concentration 10
  % inhibition Apol 90': 50.5955%
DRC-1; 90'; concentration 20
  % inhibition Apol 90': 73.6159%
DRC-1; 90'; concentration 40
  % inhibition Apol 90': 87.1809%
DRC-1; 90'; concentration 80
  % inhibition Apol 90': 85.204%
DRC-1; 180'; concentration 2.5
  % inhibition apPOL 180': -3.687%
DRC-1; 180'; concentration 5
  % inhibition apPOL 180': 7.549%
DRC-1; 180'; concentration 10
  % inhibition apPOL 180': 35.4263%
DRC-1; 180'; concentration 20
  % inhibition apPOL 180': 60.6819%
DRC-1; 180'; concentration 40
  % inhibition apPOL 180': 82.9961%
DRC-1; 180'; concentration 80
  % inhibition apPOL 180': 83.4711%
DRC-2; 5'; concentration 2.5
  % inhibition Apo pol 5': 7%
DRC-2; 5'; concentration 5
  % inhibition Apo pol 5': 18%
DRC-2; 5'; concentration 10
  % inhibition Apo pol 5': 37%
DRC-2; 5'; concentration 20
  % inhibition Apo pol 5': 47%
DRC-2; 5'; concentration 40
  % inhibition Apo pol 5': 45%
DRC-2; 5'; concentration 80
  % inhibition Apo pol 5': 40%
DRC-2; 40'; concentration 2.5
  % inhibition Apol 40': 5.45%
DRC-2; 40'; concentration 5
  % inhibition Apol 40': 19%
DRC-2; 40'; concentration 10
  % inhibition Apol 40': 41%
DRC-2; 40'; concentration 20
  % inhibition Apol 40': 65%
DRC-2; 40'; concentration 40
  % inhibition Apol 40': 67%
DRC-2; 40'; concentration 80
  % inhibition Apol 40': 65%
DRC-2; 90'; concentration 2.5
  % inhibition ApPOL 90': 4%
DRC-2; 90'; concentration 5
  % inhibition ApPOL 90': 16%
DRC-2; 90'; concentration 10
  % inhibition ApPOL 90': 38%
DRC-2; 90'; concentration 20
  % inhibition ApPOL 90': 66%
DRC-2; 90'; concentration 40
  % inhibition ApPOL 90': 72%
DRC-2; 90'; concentration 80
  % inhibition ApPOL 90': 70%
DRC-2; 180'; concentration 2.5
  % inhibition apPOL 180': -2%
DRC-2; 180'; concentration 5
  % inhibition apPOL 180': 7%
DRC-2; 180'; concentration 10
  % inhibition apPOL 180': 27%
DRC-2; 180'; concentration 20
  % inhibition apPOL 180': 63%
DRC-2; 180'; concentration 40
  % inhibition apPOL 180': 74%
DRC-2; 180'; concentration 80
  % inhibition apPOL 180': 76%
conc. 2.5; 5'; DRC-2
  % inhibition Apo pol 5': 7%
conc. 5; 180'; DRC-2
  % inhibition apPOL 180': 7%
conc. 20; 40'; DRC-2
  % inhibition Apol 40': 65%
conc. 80; 40'; DRC-2
  % inhibition Apol 40': 65%
Primary screen value by plate and well; 90 min, 10 µM
  DNA Pol: 53
[1]
  DNA Pol: 53

## O=C(O)c1cc([N+](=O)[O-])c(N2CCN(c3cccc(C(F)(F)F)c3)CC2)c([N+](=O)[O-])c1 [KU0076747]
DRC-1; concentration 2.5; 10'
  % inhibition Apo pol 10': 9.057%
DRC-1; concentration 2.5; 90'
  % inhibition Apol 90': 2.381%
DRC-1; concentration 2.5; 180'
  % inhibition apPOL 180': -1.314%
DRC-1; concentration 5; 10'
  % inhibition Apo pol 10': 24.3374%
DRC-1; concentration 5; 90'
  % inhibition Apol 90': 17.3572%
DRC-1; concentration 5; 180'
  % inhibition apPOL 180': 9.492%
DRC-1; concentration 10; 10'
  % inhibition Apo pol 10': 20.6042%
DRC-1; concentration 10; 90'
  % inhibition Apol 90': 12.0526%
DRC-1; concentration 10; 180'
  % inhibition apPOL 180': 7.5333%
DRC-1; concentration 20; 10'
  % inhibition Apo pol 10': 54.2328%
DRC-1; concentration 20; 90'
  % inhibition Apol 90': 47.5478%
DRC-1; concentration 20; 180'
  % inhibition apPOL 180': 35.8091%
DRC-1; concentration 40; 10'
  % inhibition Apo pol 10': 87.2694%
DRC-1; concentration 40; 90'
  % inhibition Apol 90': 81.5158%
DRC-1; concentration 40; 180'
  % inhibition apPOL 180': 74.4081%
DRC-1; concentration 80 (unit not given); 10'
  % inhibition Apo pol 10': 98.3006%
DRC-1; concentration 80; 90'
  % inhibition Apol 90': 92.5623%
DRC-1; concentration 80; 180'
  % inhibition apPOL 180': 89.3704%
DRC-2; 5'; concentration 10
  % inhibition Apo pol 5': 10%
DRC-2; 40'; concentration 2.5
  % inhibition Apol 40': 10%
DRC-2; 40'; concentration 40
  % inhibition Apol 40': 63%
DRC-2; 40'; concentration 80
  % inhibition Apol 40': 75%
DRC-2; 90'; concentration 2.5
  % inhibition ApPOL 90': 10%
DRC-2; 90'; concentration 40
  % inhibition ApPOL 90': 63%
DRC-2; 180'; concentration 80
  % inhibition apPOL 180': 75%
DRC-2; concentration 2.5; 5'
  % inhibition Apo pol 5': 9%
DRC-2; concentration 2.5; 40'
  % inhibition Apol 40': 10%
DRC-2; concentration 2.5; 90'
  % inhibition ApPOL 90': 10%
DRC-2; concentration 2.5; 180'
  % inhibition apPOL 180': 5%
DRC-2; concentration 5; 5'
  % inhibition Apo pol 5': 16%
DRC-2; concentration 5; 40'
  % inhibition Apol 40': 17%
DRC-2; concentration 5; 90'
  % inhibition ApPOL 90': 15%
DRC-2; concentration 5; 180'
  % inhibition apPOL 180': 8.45%
DRC-2; concentration 10; 5'
  % inhibition Apo pol 5': 10%
DRC-2; concentration 10; 40'
  % inhibition Apol 40': 8.56%
DRC-2; concentration 10; 90'
  % inhibition ApPOL 90': 8%
DRC-2; concentration 10; 180'
  % inhibition apPOL 180': 2.65%
DRC-2; concentration 20; 5'
  % inhibition Apo pol 5': 20%
DRC-2; concentration 20; 40'
  % inhibition Apol 40': 22%
DRC-2; concentration 20; 90'
  % inhibition ApPOL 90': 21%
DRC-2; concentration 20; 180'
  % inhibition apPOL 180': 12%
DRC-2; concentration 40; 5'
  % inhibition Apo pol 5': 54%
DRC-2; concentration 40; 40'
  % inhibition Apol 40': 63%
DRC-2; concentration 40; 90'
  % inhibition ApPOL 90': 63%
DRC-2; concentration 40; 180'
  % inhibition apPOL 180': 56%
DRC-2; concentration 80; 5'
  % inhibition Apo pol 5': 64%
DRC-2; concentration 80; 40'
  % inhibition Apol 40': 75%
DRC-2; concentration 80; 90'
  % inhibition ApPOL 90': 77%
DRC-2; concentration 80; 180'
  % inhibition apPOL 180': 75%
[1]
  DNA Pol: 52
Primary screen value; head prints only 'DNA Pol'; 90 min, 10 µM
  DNA Pol: 52

## O=C(O)CC1=NN(c2cccc([N+](=O)[O-])c2)C(=O)C1 [KU0100531]
'DNA Pol'; screening value, unit not given; 90 min, 10 µM
  DNA Pol: 37
DRC-1; 10'; concentration 2.5
  % inhibition Apo pol 10': 32.2581%
DRC-1; 10'; concentration 5
  % inhibition Apo pol 10': 49.6373%
DRC-1; 10'; concentration 10
  % inhibition Apo pol 10': 61.4137%
DRC-1; 10'; concentration 20
  % inhibition Apo pol 10': 68.5645%
DRC-1; 10'; concentration 40
  % inhibition Apo pol 10': 76.8361%
DRC-1; 10'; concentration 80
  % inhibition Apo pol 10': 88.3009%
DRC-1; 90'; concentration 2.5
  % inhibition Apol 90': 15.7319%
DRC-1; 90'; concentration 5
  % inhibition Apol 90': 18.7201%
DRC-1; 90'; concentration 10
  % inhibition Apol 90': 28.2695%
DRC-1; 90'; concentration 20
  % inhibition Apol 90': 34.3533%
DRC-1; 90'; concentration 40
  % inhibition Apol 90': 46.1706%
DRC-1; 90'; concentration 80
  % inhibition Apol 90': 68.1347%
DRC-1; 180'; concentration 2.5
  % inhibition apPOL 180': 13.4028%
DRC-1; 180'; concentration 5
  % inhibition apPOL 180': 8.316%
DRC-1; 180'; concentration 10
  % inhibition apPOL 180': 15.9728%
DRC-1; 180'; concentration 20
  % inhibition apPOL 180': 20.4489%
DRC-1; 180'; concentration 40
  % inhibition apPOL 180': 28.0717%
DRC-1; 180'; concentration 80
  % inhibition apPOL 180': 50.5655%
DRC-2, 5', concentration 2.5
  % inhibition Apo pol 5': 25%
DRC-2, 5', concentration 5
  % inhibition Apo pol 5': 36%
DRC-2, 5', concentration 10
  % inhibition Apo pol 5': 45%
DRC-2, 5', concentration 20
  % inhibition Apo pol 5': 50%
DRC-2, 5', concentration 40
  % inhibition Apo pol 5': 58%
DRC-2, 5', concentration 80
  % inhibition Apo pol 5': 66%
DRC-2, 40', concentration 2.5
  % inhibition Apol 40': 12%
DRC-2, 40', concentration 5
  % inhibition Apol 40': 21%
DRC-2, 40', concentration 10
  % inhibition Apol 40': 32%
DRC-2, 40', concentration 20
  % inhibition Apol 40': 39%
DRC-2, 40', concentration 40
  % inhibition Apol 40': 54%
DRC-2, 40', concentration 80
  % inhibition Apol 40': 71%
DRC-2, 90', concentration 2.5
  % inhibition ApPOL 90': 6%
DRC-2, 90', concentration 5
  % inhibition ApPOL 90': 15%
DRC-2, 90', concentration 10
  % inhibition ApPOL 90': 24%
DRC-2, 90', concentration 20
  % inhibition ApPOL 90': 31%
DRC-2, 90', concentration 40
  % inhibition ApPOL 90': 48%
DRC-2, 90', concentration 80
  % inhibition ApPOL 90': 71%
DRC-2, 180', concentration 2.5
  % inhibition apPOL 180': 2%
DRC-2, 180', concentration 5
  % inhibition apPOL 180': 7.6%
DRC-2, 180', concentration 10
  % inhibition apPOL 180': 17%
DRC-2, 180', concentration 20
  % inhibition apPOL 180': 23%
DRC-2, 180', concentration 40
  % inhibition apPOL 180': 41%
DRC-2, 180', concentration 80
  % inhibition apPOL 180': 70%
Conc 80 (unit not given); 40'; DRC-2
  % inhibition Apol 40': 71%
Conc 80 (unit not given); 90'; DRC-2
  % inhibition ApPOL 90': 71%
Primary screen hit value, DNA Pol (186 hits); 90 min, 10 µM
  DNA Pol: 37
